Experimental data: ChEMBL document CHEMBL1150977, “A quantitative analysis of kinase inhibitor selectivity” (Nat Biotechnol, 2008)

What follows are compounds tested against Epithelial discoidin domain-containing receptor 1 (Homo sapiens, UniProt Q08345).
Epithelial discoidin domain-containing receptor 1, sequence (Q08345 whole entry, the tested form may be a part): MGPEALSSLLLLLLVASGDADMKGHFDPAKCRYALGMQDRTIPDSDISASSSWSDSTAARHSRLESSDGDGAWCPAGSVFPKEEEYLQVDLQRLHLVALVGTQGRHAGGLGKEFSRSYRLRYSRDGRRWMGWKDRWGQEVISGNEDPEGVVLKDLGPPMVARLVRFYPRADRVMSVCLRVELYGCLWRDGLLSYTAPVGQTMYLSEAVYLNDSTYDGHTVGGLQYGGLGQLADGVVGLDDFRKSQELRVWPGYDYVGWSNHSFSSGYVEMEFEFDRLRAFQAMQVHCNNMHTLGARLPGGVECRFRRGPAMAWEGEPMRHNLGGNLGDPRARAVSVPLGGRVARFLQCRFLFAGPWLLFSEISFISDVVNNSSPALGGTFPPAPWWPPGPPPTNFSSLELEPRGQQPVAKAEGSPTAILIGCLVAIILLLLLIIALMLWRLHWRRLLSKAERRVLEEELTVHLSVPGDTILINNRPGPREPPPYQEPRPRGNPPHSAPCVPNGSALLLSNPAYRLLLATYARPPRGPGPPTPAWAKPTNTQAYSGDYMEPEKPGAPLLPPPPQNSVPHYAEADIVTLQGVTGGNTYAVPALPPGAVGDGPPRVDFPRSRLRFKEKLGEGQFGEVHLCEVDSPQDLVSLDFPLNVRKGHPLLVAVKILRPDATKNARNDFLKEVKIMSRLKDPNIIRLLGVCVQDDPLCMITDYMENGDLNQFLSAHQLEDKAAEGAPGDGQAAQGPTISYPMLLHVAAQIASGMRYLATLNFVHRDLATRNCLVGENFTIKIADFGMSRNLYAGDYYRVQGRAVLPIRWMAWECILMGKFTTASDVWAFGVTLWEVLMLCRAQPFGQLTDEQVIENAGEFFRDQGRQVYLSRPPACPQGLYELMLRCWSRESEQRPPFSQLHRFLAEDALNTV

Structure (SMILES)	Kd
CCOc1cc2ncc(C#N)c(Nc3ccc(F)c(Cl)c3)c2cc1NC(=O)/C=C/CN(C)C [PELITINIB]	> 10 µM
Nc1nc(Nc2ccc(S(N)(=O)=O)cc2)nn1C(=O)c1c(F)cccc1F [JNJ-7706621]	> 10 µM
COCC(=O)NC/C=C/c1ccc2ncnc(Nc3ccc(Oc4ccc(C)nc4)c(C)c3)c2c1 [CP-724714]	> 10 µM
NC(=O)c1ccc(-c2nc(-c3ccc4c(c3)OCO4)c(-c3ccccn3)[nH]2)cc1 [SB-431542]	> 10 µM

These compounds were tested against Mitogen-activated protein kinase 7 (Homo sapiens, UniProt Q13164).
Mitogen-activated protein kinase 7, sequence (Q13164 whole entry): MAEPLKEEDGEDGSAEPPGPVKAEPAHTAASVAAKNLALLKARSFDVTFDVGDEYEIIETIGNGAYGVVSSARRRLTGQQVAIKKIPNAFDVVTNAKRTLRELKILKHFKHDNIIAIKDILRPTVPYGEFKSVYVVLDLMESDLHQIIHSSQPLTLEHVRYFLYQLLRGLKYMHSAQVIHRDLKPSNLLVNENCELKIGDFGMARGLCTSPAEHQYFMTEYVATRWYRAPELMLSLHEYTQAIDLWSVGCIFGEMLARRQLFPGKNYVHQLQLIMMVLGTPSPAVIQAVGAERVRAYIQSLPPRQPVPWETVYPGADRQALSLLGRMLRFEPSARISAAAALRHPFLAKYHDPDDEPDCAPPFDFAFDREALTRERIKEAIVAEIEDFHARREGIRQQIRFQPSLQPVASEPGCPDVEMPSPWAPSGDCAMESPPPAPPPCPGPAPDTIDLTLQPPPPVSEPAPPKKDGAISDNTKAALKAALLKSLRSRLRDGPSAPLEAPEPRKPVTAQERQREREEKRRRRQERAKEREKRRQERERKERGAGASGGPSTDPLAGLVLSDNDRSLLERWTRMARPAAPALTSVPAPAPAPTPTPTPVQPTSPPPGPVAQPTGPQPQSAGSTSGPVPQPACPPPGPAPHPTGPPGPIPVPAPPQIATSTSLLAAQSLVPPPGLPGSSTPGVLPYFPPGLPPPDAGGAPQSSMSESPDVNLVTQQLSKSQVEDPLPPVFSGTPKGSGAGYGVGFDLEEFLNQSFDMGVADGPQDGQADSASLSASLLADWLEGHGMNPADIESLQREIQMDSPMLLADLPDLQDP

Structure (SMILES)	Kd
CCOc1cc2ncc(C#N)c(Nc3ccc(F)c(Cl)c3)c2cc1NC(=O)/C=C/CN(C)C [PELITINIB]	> 10 µM
Oc1ccc(-c2nc(-c3ccncc3)c(-c3ccc(F)cc3)[nH]2)cc1 [SB-202190]	> 10 µM
COCC(=O)NC/C=C/c1ccc2ncnc(Nc3ccc(Oc4ccc(C)nc4)c(C)c3)c2c1 [CP-724714]	> 10 µM
NC(=O)c1ccc(-c2nc(-c3ccc4c(c3)OCO4)c(-c3ccccn3)[nH]2)cc1 [SB-431542]	> 10 µM

Each compound was assayed against cAMP-dependent protein kinase catalytic subunit alpha (Homo sapiens, UniProt P17612).

Structure (SMILES)	Kd
CCOc1cc2ncc(C#N)c(Nc3ccc(F)c(Cl)c3)c2cc1NC(=O)/C=C/CN(C)C [PELITINIB]	> 10 µM
COCC(=O)NC/C=C/c1ccc2ncnc(Nc3ccc(Oc4ccc(C)nc4)c(C)c3)c2c1 [CP-724714]	> 10 µM
NC(=O)c1ccc(-c2nc(-c3ccc4c(c3)OCO4)c(-c3ccccn3)[nH]2)cc1 [SB-431542]	> 10 µM

The compounds below were run against Mast/stem cell growth factor receptor Kit (Homo sapiens, UniProt P10721).
Mast/stem cell growth factor receptor Kit, sequence (P10721 whole entry): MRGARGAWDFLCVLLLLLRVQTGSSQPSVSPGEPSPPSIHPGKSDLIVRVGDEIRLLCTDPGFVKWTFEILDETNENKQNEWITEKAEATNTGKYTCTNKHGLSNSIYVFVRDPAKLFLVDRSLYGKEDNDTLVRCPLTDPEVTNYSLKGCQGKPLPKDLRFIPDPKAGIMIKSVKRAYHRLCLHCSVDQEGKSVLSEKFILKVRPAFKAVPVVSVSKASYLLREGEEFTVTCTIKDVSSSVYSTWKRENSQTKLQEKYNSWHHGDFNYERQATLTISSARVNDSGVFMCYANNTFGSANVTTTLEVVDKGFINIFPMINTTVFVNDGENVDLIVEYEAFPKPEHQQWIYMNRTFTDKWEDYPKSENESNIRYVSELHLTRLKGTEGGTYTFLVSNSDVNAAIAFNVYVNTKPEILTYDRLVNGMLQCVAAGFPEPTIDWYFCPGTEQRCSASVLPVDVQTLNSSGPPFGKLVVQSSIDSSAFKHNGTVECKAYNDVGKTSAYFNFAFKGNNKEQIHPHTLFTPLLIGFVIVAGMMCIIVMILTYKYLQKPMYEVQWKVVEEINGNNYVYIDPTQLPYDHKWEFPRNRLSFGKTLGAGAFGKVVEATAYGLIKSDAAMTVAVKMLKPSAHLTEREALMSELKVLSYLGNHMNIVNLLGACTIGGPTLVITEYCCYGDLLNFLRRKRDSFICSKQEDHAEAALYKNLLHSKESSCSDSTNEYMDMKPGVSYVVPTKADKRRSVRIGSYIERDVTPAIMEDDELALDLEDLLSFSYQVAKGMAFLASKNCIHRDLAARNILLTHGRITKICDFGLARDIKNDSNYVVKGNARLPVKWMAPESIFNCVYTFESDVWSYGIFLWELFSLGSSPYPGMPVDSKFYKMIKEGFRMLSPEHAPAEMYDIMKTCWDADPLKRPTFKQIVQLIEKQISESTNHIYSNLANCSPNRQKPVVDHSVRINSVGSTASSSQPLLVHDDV

Structure (SMILES)	Kd
CCOc1cc2ncc(C#N)c(Nc3ccc(F)c(Cl)c3)c2cc1NC(=O)/C=C/CN(C)C [PELITINIB]	> 10 µM
Oc1ccc(-c2nc(-c3ccncc3)c(-c3ccc(F)cc3)[nH]2)cc1 [SB-202190]	> 10 µM
COCC(=O)NC/C=C/c1ccc2ncnc(Nc3ccc(Oc4ccc(C)nc4)c(C)c3)c2c1 [CP-724714]	> 10 µM
NC(=O)c1ccc(-c2nc(-c3ccc4c(c3)OCO4)c(-c3ccccn3)[nH]2)cc1 [SB-431542]	> 10 µM

What follows are compounds tested against Death-associated protein kinase 3 (Homo sapiens, UniProt O43293).
Death-associated protein kinase 3, sequence (O43293 whole entry): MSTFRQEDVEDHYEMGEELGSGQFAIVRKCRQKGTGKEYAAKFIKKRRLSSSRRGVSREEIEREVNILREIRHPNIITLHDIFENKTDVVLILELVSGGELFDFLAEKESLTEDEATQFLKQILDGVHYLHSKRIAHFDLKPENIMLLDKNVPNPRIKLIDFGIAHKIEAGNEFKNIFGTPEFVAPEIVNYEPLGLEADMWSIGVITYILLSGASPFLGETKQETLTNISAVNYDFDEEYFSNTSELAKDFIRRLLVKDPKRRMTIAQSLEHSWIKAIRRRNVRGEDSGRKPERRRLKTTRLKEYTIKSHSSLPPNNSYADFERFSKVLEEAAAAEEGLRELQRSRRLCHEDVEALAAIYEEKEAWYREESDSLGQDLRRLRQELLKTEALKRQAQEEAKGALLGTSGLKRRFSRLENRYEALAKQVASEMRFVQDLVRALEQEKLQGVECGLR

Structure (SMILES)	Kd
Nc1nc(Nc2ccc(S(N)(=O)=O)cc2)nn1C(=O)c1c(F)cccc1F [JNJ-7706621]	> 10 µM
Oc1ccc(-c2nc(-c3ccncc3)c(-c3ccc(F)cc3)[nH]2)cc1 [SB-202190]	> 10 µM
COCC(=O)NC/C=C/c1ccc2ncnc(Nc3ccc(Oc4ccc(C)nc4)c(C)c3)c2c1 [CP-724714]	> 10 µM
NC(=O)c1ccc(-c2nc(-c3ccc4c(c3)OCO4)c(-c3ccccn3)[nH]2)cc1 [SB-431542]	> 10 µM

The compounds below were run against Cyclin-dependent kinase 7 (Homo sapiens, UniProt P50613).
Cyclin-dependent kinase 7, sequence (P50613 whole entry): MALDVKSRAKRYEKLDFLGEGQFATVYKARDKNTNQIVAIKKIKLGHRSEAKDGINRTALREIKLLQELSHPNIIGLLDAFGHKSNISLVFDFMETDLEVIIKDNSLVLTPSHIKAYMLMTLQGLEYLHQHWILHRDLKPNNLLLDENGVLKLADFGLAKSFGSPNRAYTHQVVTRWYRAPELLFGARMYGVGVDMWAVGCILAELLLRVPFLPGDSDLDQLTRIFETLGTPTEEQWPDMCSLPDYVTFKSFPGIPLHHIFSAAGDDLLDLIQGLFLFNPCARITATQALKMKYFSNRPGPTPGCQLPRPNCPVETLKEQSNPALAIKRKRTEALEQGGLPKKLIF

Structure (SMILES)	Kd
CCOc1cc2ncc(C#N)c(Nc3ccc(F)c(Cl)c3)c2cc1NC(=O)/C=C/CN(C)C [PELITINIB]	> 10 µM
Oc1ccc(-c2nc(-c3ccncc3)c(-c3ccc(F)cc3)[nH]2)cc1 [SB-202190]	> 10 µM
COCC(=O)NC/C=C/c1ccc2ncnc(Nc3ccc(Oc4ccc(C)nc4)c(C)c3)c2c1 [CP-724714]	> 10 µM
NC(=O)c1ccc(-c2nc(-c3ccc4c(c3)OCO4)c(-c3ccccn3)[nH]2)cc1 [SB-431542]	> 10 µM

Each compound was assayed against T1, Serine/threonine-protein kinase 36 (Homo sapiens, UniProt Q9NRP7).
T1 sequence (Q9NRP7 whole entry): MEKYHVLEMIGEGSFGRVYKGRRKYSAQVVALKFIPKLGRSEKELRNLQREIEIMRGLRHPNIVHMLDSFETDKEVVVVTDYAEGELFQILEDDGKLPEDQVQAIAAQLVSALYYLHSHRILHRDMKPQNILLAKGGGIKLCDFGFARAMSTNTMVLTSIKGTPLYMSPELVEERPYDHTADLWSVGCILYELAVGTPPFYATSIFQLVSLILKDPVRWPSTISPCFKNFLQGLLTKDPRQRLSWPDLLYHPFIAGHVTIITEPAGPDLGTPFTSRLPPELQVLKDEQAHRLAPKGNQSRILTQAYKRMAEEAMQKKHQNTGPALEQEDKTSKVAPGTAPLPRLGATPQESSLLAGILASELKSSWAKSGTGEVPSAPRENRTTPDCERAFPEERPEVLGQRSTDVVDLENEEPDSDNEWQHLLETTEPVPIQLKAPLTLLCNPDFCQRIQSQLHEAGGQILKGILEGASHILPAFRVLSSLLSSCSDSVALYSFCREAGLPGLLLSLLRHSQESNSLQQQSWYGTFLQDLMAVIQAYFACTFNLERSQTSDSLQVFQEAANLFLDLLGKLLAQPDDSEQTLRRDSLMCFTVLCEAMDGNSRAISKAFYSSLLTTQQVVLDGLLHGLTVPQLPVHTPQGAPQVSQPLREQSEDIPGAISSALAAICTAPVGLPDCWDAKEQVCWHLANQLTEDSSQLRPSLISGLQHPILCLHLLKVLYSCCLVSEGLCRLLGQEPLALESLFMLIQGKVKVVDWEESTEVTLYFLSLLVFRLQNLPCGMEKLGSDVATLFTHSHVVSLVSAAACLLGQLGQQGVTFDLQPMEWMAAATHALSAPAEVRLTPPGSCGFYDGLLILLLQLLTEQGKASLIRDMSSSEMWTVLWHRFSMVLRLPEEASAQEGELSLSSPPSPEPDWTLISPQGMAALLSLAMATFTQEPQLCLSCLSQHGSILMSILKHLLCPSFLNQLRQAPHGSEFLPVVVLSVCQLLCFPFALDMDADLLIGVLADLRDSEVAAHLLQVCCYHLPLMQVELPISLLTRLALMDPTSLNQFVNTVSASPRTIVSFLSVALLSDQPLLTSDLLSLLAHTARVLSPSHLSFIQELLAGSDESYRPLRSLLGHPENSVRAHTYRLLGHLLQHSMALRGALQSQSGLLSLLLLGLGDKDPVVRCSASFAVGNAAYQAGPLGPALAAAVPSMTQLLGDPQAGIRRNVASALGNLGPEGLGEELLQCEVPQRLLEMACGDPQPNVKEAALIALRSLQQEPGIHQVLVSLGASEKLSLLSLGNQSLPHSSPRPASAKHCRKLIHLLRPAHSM

Structure (SMILES)	Kd
Nc1nc(Nc2ccc(S(N)(=O)=O)cc2)nn1C(=O)c1c(F)cccc1F [JNJ-7706621]	> 10 µM
Oc1ccc(-c2nc(-c3ccncc3)c(-c3ccc(F)cc3)[nH]2)cc1 [SB-202190]	0.79 µM
COCC(=O)NC/C=C/c1ccc2ncnc(Nc3ccc(Oc4ccc(C)nc4)c(C)c3)c2c1 [CP-724714]	> 10 µM
NC(=O)c1ccc(-c2nc(-c3ccc4c(c3)OCO4)c(-c3ccccn3)[nH]2)cc1 [SB-431542]	> 10 µM

Each compound was assayed against Platelet-derived growth factor receptor beta (Homo sapiens, UniProt P09619).
Platelet-derived growth factor receptor beta, sequence (P09619 whole entry): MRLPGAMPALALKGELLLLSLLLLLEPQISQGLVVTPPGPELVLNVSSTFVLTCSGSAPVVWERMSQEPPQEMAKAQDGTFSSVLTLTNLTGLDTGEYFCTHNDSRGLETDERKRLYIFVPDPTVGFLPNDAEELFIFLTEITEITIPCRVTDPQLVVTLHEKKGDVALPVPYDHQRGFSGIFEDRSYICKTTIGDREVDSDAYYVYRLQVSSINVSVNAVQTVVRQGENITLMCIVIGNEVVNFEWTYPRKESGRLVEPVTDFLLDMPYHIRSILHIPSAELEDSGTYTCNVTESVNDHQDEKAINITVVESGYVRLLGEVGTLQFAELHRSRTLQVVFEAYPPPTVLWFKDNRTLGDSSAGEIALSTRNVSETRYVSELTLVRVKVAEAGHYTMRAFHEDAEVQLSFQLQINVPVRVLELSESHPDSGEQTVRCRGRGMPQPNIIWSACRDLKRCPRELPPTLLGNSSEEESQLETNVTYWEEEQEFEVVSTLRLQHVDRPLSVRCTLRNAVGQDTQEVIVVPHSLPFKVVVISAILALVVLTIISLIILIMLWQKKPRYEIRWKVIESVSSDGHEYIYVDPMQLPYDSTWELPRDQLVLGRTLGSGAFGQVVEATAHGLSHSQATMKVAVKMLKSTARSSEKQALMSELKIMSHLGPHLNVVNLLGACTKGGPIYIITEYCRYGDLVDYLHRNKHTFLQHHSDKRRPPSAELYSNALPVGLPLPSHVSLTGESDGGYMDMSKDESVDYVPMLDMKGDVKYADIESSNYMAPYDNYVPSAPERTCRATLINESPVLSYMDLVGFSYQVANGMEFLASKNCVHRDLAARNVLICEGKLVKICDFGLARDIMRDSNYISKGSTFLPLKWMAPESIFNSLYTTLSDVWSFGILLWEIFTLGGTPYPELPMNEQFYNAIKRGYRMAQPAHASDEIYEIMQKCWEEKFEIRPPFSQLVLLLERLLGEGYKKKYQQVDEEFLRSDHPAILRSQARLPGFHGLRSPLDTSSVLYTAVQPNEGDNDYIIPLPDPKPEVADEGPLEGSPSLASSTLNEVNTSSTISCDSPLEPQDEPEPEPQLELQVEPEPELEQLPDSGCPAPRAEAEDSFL

Structure (SMILES)	Kd
CCOc1cc2ncc(C#N)c(Nc3ccc(F)c(Cl)c3)c2cc1NC(=O)/C=C/CN(C)C [PELITINIB]	> 10 µM
Oc1ccc(-c2nc(-c3ccncc3)c(-c3ccc(F)cc3)[nH]2)cc1 [SB-202190]	> 10 µM
COCC(=O)NC/C=C/c1ccc2ncnc(Nc3ccc(Oc4ccc(C)nc4)c(C)c3)c2c1 [CP-724714]	> 10 µM
NC(=O)c1ccc(-c2nc(-c3ccc4c(c3)OCO4)c(-c3ccccn3)[nH]2)cc1 [SB-431542]	> 10 µM

What follows are compounds tested against Proto-oncogene tyrosine-protein kinase ROS (Homo sapiens, UniProt P08922).

Structure (SMILES)	Kd
CCOc1cc2ncc(C#N)c(Nc3ccc(F)c(Cl)c3)c2cc1NC(=O)/C=C/CN(C)C [PELITINIB]	> 10 µM
Nc1nc(Nc2ccc(S(N)(=O)=O)cc2)nn1C(=O)c1c(F)cccc1F [JNJ-7706621]	> 10 µM
Oc1ccc(-c2nc(-c3ccncc3)c(-c3ccc(F)cc3)[nH]2)cc1 [SB-202190]	> 10 µM
COCC(=O)NC/C=C/c1ccc2ncnc(Nc3ccc(Oc4ccc(C)nc4)c(C)c3)c2c1 [CP-724714]	> 10 µM
NC(=O)c1ccc(-c2nc(-c3ccc4c(c3)OCO4)c(-c3ccccn3)[nH]2)cc1 [SB-431542]	> 10 µM

Each compound was assayed against T2, Serine/threonine-protein kinase Nek1 (Homo sapiens, UniProt Q96PY6).
T2 sequence (Q96PY6 whole entry): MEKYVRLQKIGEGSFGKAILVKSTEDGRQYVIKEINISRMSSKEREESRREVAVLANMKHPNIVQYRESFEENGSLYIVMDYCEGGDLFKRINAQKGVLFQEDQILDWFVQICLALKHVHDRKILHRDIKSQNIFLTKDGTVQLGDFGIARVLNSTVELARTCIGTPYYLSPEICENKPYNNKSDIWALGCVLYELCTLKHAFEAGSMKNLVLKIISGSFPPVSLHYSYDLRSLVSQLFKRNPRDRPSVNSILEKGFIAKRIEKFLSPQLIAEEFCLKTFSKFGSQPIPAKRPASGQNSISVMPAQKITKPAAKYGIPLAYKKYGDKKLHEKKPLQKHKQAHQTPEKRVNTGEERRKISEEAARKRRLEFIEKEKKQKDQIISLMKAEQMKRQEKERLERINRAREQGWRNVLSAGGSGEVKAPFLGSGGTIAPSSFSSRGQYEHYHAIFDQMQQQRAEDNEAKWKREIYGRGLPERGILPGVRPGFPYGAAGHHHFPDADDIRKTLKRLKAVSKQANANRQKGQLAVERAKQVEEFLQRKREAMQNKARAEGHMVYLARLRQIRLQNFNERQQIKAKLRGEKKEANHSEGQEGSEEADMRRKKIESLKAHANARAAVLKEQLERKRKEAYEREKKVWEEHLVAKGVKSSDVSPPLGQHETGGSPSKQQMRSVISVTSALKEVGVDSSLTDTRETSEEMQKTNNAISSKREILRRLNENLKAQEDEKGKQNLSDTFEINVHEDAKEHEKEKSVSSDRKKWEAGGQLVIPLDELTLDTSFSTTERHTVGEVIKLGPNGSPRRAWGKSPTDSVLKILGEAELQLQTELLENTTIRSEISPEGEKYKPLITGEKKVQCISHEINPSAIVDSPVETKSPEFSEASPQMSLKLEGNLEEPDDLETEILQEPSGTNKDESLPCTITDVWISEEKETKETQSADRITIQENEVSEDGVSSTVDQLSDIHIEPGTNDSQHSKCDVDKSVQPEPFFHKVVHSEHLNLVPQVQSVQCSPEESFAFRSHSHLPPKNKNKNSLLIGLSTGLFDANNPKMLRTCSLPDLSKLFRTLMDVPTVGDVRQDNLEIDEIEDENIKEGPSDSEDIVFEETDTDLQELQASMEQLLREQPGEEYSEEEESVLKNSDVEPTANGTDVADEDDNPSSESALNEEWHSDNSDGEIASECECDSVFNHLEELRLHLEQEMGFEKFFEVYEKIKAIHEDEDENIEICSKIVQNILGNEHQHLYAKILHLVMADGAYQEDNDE

Structure (SMILES)	Kd
Nc1nc(Nc2ccc(S(N)(=O)=O)cc2)nn1C(=O)c1c(F)cccc1F [JNJ-7706621]	> 10 µM
Oc1ccc(-c2nc(-c3ccncc3)c(-c3ccc(F)cc3)[nH]2)cc1 [SB-202190]	> 10 µM
COCC(=O)NC/C=C/c1ccc2ncnc(Nc3ccc(Oc4ccc(C)nc4)c(C)c3)c2c1 [CP-724714]	> 10 µM
NC(=O)c1ccc(-c2nc(-c3ccc4c(c3)OCO4)c(-c3ccccn3)[nH]2)cc1 [SB-431542]	> 10 µM
CCN1CCN(Cc2ccc(NC(=O)Nc3ccc(Oc4cc(NC)ncn4)cc3)cc2C(F)(F)F)CC1 [AST-487]	> 10 µM
